The values that follow come from patent US20090269403A1, “ORAL CONTRACEPTIVE DOSAGE FORMS AND METHODS OF MAKING SUCH DOSAGE FORMS” (priority 2008, published 2009).

The conditions of data set [1]: acidic conditions (such as encountered in the gastric environment); cited from earlier work.
The nature of data set [2]: Drug release from enteric-coated drospirenone/ethinylestradiol tablets (USP Type II paddle dissolution). The settings on record: Example 19 enteric-coated tablets, second test run, 75 rpm, 37° C. The data set is classed as physicochemical. How it is done: The rate at which the tablets release the drospirenone and ethinylestradiol was determined. Each tablet was placed in 0.1 N HCl and stirred for 2 hours. After this time, the pH of each of the mixtures containing the tablets was adjusted to pH 6.8 with phosphate buffer and stirred for 4 hours using a USP Type II paddle apparatus at 75 rpm and 37° C. A second test run gave the results listed below in Table 12. A graph of the drug release profiles for the second test run is depicted in FIG. 4.

The conditions of data set [3]: water at various pH values; cited from earlier work.

In the case of `C[C@]12CCC(=O)C=C1[C@@H]1C[C@@H]1[C@H]1[C@@H]3[C@@H]4C[C@@H]4[C@@]4(CCC(=O)O4)[C@@]3(C)CC[C@@H]12` [Drospirenone, 6β,7β,15β, 16β-dimethylene-3-oxo-17a-pregn-4-ene-21,17-carbolactone], the “stability under acidic conditions” value in data set [1] is “undergoes isomerization to a form that is inactive”. Besides, in data set [2] (5 min, in 0.1 N HCl), the “Average % Drug Release (n = 6), 5 min” value stood at 0.0%. Besides, in data set [2] (120 min, end of 2 hours in 0.1 N HCl), the “Average % Drug Release (n = 6), 120 min” value was 0.0%. Besides, the “Average % Drug Release (n = 6), 130 min” value in data set [2] (130 min, 2 hours 0.1 N HCl, then pH 6.8 phosphate buffer) worked out at 29.1%. Moreover, the “Average % Drug Release (n = 6), 140 min” value in data set [2] (140 min, 2 hours 0.1 N HCl, then pH 6.8 phosphate buffer) worked out at 108.4%. In data set [2] (150 min, 2 hours 0.1 N HCl, then pH 6.8 phosphate buffer), the “Average % Drug Release (n = 6), 150 min” value is given as 105.4%. In addition, the “Average % Drug Release (n = 6), 165 min” value in data set [2] (165 min, 2 hours 0.1 N HCl, then pH 6.8 phosphate buffer) is recorded as 105.2%. Moreover, in data set [2] (180 min, 2 hours 0.1 N HCl, then pH 6.8 phosphate buffer), the “Average % Drug Release (n = 6), 180 min” value stood at 105.0%. In addition, the “Average % Drug Release (n = 6), 240 min” value in data set [2] (240 min, 2 hours 0.1 N HCl, then pH 6.8 phosphate buffer) is 103.9%. In data set [2] (300 min, 2 hours 0.1 N HCl, then pH 6.8 phosphate buffer), the “Average % Drug Release (n = 6), 300 min” value worked out at 102.5%. In addition, in data set [3], the solubility in water result is on record as “only sparingly soluble in water”.
